# Test results published in PMC9061853, “Luminescent bis(benzo[d]thiazolyl)quinoxaline: facile synthesis, nucleic acid and protein BSA interaction, live-cell imaging, biopharmaceutical research and cancer theranostic application” (RSC Advances, 2019).
# Tests used:
# [1] = Stability in water, GSH and MTT condition by UV-vis spectroscopy; type: physicochemical
# Protocol: The stability of compounds in water, GSH, and MTT condition (10% DMSO in PBS buffer) was studied. Water is a key factor because it widens the application in the biological field. […] The stability of complex 7e in water (pH 7.2) and GSH were investigated by UV-vis spectroscopy over a period of 20 h of time (Fig. S2a and b ^†).
# BSA = molecular target: T1, BSA (Bos taurus, UniProt P02769); assay: BSA binding study (tryptophan emission quenching); design: species or system bovine
# T1 construct: purchased Himedia Chemical Limited
# Protocol: Serum albumin has the capacity to bind with the ligands and helps in the uptake of the drug inside the cells. BSA is commonly used in this study because of its similar structural homology to HSA. […] A significant quenching of BSA fluorescence can be observed upon interaction with drug molecule.[27] The BSA solution of 3 μM concentration was titrated against 10–100 μM of the drug 7e upon excitation of 280 nm. […] The Stern–Volmer constant (KBSA), quenching constant (Kq), binding constant (K), a number of binding sites (n) were calculated from the eqn (5) and (6) (Fig. S4b and c ^†). The Kq values of the newly synthesized compounds were in the order of 10^12 M^−1 s^−1 which were higher enough than maximum scatter collision quenching constant (2.0 × 10^10 M^−1 s^−1) of BSA quenchers (Table 2).[28] High potency of these complexes in cancer cells may be attributed by the strong binding with serum albumin which overcomes the drug resistance by GSH. […]
# BSA is a carrier protein that increases solubility of the drug in the blood by binding to it.
# Fluorescence spectroscopy is an efficient method to study the interaction of the BSA with the compound by quenching mechanism. The binding of the complexes to the bovine serum albumin (BSA) were measured by tryptophan emission quenching study. The complex […]
# solutions (0-60 μM) were gradually added to the solution of BSA (2 μM) in 5 mM Tris- […]
# HCl/NaCl buffer (pH 7.2) and the quenching of the emission signals at 350 nm (λex = 295 […]
# nm) were recorded. The emission intensity of BSA decreases gradually on increasing the […]
# complex concentration. The quenching constant (KBSA) has been determined quantitatively by […]
# using Stern-Volmer equation. Stern-Volmer plots of I0/I vs. [complex] were made using the […]
# corrected fluorescence data taking into account the effect of dilution. Linear fit of the data […]
# Where I0 and I are the emission intensities of BSA in the absence and in the presence of […]
# quencher of concentration [Q], gave the quenching constant (K BSA) using Origin Pro 8.5 […]
# software. kq is the quenching rate constant, τ0 is the average lifetime of the tryptophan in BSA […]
# without quencher reported as 1 x 10-8 sec. The binding propensity of the quenchers with […]
# respective serum proteins were expressed by Scatchard equation. For such static quenching […]
# interaction, the binding constant (K) and the number of binding sites (n) can be determined […]
# according to the Scatchard equation: […]
# The linear fitting of the log (I0-I)/I vs. log [Q] plot gives values of n and K from slope and […]
# 2.8. Stability study, Solubility study, metabolic stability study, Caco-2 permeability study
# %Nominal = Mean of calculated concentration of test samples ×100 ….(7) […]
# Calculated concentration from calibration curve
# CL = k × volume of reaction mixture (mL) … (8) […]
# intr protein content (mg)
# [2] = Caco-2 permeability study; type: in vitro ADME; conditions: human, Caco-2, 10 μM, N = 3
# Protocol: (§1) Compound 7g permeation ability (i.e. permeability) was assessed through Caco-2 cell monolayer. Permeability study was planned in both directions from apical to basolateral (A to B) and basolateral to apical (B to A) side. A to B is for checking drug permeation characteristics from the intestine (site of absorption) to systemic circulation and B to A is for checking drug efflux back to the intestine.
# Caco-2 cell monolayer = assay: Caco-2 permeability study; type: in vitro ADME; conditions: 10 μM, A to B and B to A; samples below the lower limit of quantitation
# Protocol: as §1
# [3] = Buffer solubility (LC-MS/MS); type: physicochemical; conditions: aqueous buffer, kinetic from dmso stock; pH 7.4 buffer, 2 h incubation
# Protocol: LC-MS/MS methods were developed for compound 7g to quantify the drug concentration and in vitro study (i.e. buffer solubility, buffer stability, metabolic stability, and permeability) in a systemic manner (Table 4). Chromatographic elution conditions were set with the use of 5 mM ammonium formate containing 0.1% formic acid and acetonitrile containing 0.1% formic acid with C8, Kromasil, and 4.6 × […] as a stationary phase (Fig. S5a and b ^†). […] For the data analysis, % accuracy of compound 7g was calculated and it was soluble up to 25 μM (Fig. 3, eqn (7) ^†).
# The in vitro solubility and stability of 7g were evaluated in pH 7.4 buffer. The buffer solubility and stability studies were conducted at six different concentrations ranging from 3.13 to 100 μM. For the data analysis, % stability of compound 7g at 120 min was calculated with respect to 0 min time point samples and it was stable up to 2 hours in pH 7.4 buffers. Data analysis was performed through the eqn (8) ^† and was tabulated (Table 4). Compound 7g found to be stable up to 2 hours with % remaining of 71% in pH 7.4.
# [4] = Metabolic stability in dog liver microsomes; type: in vitro ADME; conditions: for % Metabolism in 30 min: 0.5 μM, 0.5 mg ml^−1 protein, NADPH, 37 °C; for half-life at 0.5 μM: dog, liver microsomes
# Protocol: The in vitro metabolic rate of 7g was determined in liver microsomes and the intrinsic clearance (CLintr) was estimated. The study was conducted at 0.5 μM substrate concentration and microsomal protein concentration of 0.5 mg ml^−1. Metabolic stability study in the presence of microsomes and cofactor NADPH was performed at 37 °C, 60 rpm for 30 min time duration. NADPH free control incubation was performed simultaneously for 30 min to understand if there are any non-enzymatic metabolism related issues. […] Intrinsic clearance as given in Table 6, was calculated using eqn (8). ^†
# T1 sequence (P02769 25-607): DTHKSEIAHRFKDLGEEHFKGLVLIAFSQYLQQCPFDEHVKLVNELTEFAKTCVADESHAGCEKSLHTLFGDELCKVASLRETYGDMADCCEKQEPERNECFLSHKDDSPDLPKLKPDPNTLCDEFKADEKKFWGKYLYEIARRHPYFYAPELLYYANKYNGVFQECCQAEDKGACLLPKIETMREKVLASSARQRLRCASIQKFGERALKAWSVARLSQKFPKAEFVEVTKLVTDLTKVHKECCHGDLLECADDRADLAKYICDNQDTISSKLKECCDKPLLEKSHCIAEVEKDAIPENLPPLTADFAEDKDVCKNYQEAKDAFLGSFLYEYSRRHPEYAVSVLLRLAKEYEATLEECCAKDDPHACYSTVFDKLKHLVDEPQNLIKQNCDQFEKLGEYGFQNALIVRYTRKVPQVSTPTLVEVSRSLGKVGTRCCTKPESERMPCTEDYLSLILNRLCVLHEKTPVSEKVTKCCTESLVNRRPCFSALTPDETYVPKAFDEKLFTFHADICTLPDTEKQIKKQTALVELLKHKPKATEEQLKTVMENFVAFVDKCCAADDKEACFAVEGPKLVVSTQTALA
SMILES,"stability in MTT condition ([1]; 10% DMSO in PBS buffer, 18 h)","stability in GSH ([1]; GSH, 20 h)","stability in water ([1]; water pH 7.2, 20 h)","K BSA, Stern–Volmer quenching constant (BSA) [M⁻¹]","K q, quenching rate constant (BSA) [M⁻¹ s⁻¹]","quenching of BSA fluorescence (BSA; BSA 3 μM titrated with 10–100 μM drug, excitation 280 nm)","n, number of binding sites (BSA; Scatchard equation)","Kd (BSA; Scatchard equation, read-out: K, binding constant with BSA (converted)) [mM]",recovery at 10 μM ([2]; A to B) [%],recovery at 10 μM ([2]; B to A) [%],permeability across Caco-2 cell monolayer (Caco-2 cell monolayer),solubility at 2 h [3] [µM],CLint ([4]; DLM set 1) [μl per min per mg protein],% Metabolism in 30 min ([4]; DLM set 1) [%],CLint ([4]; DLM set 2) [μl per min per mg protein],% Metabolism in 30 min ([4]; DLM set 2) [%],half-life at 0.5 μM ([4]; DLM set 1) [h],half-life at 0.5 μM ([4]; DLM set 2) [h]
Clc1cc2nc(COc3ccccc3-c3nc4ccccc4s3)c(COc3ccccc3-c3nc4ccccc4s3)nc2cc1Cl [Compound 7e],insignificant change of absorbance,no changes in absorbance,no changes in absorbance,10200,1.02e+12,more than 50%,1.87,3.82,–,–,–,–,–,–,–,–,–,–
"COc1ccc2nc(COc3ccccc3-c3nc4ccccc4s3)c(COc3ccccc3-c3nc4ccccc4s3)nc2c1 [Compound 7g, 2,2'-((((6-methoxyquinoxaline-2,3-diyl)bis(methylene))bis(oxy))bis(2,1-phenylene))bis(benzo[d]thiazole)]",–,–,–,–,–,–,–,–,101,96,low permeability,≤ 25,18,21,12,14,1.28,1.91
